≈ marks a conversion by molar mass, not a printed value. Where “and” joins values, the source holds several entries; their conditions need not be identical. Identical values can stand only once. Like-named read-outs stand apart in the source and are kept apart here.
Key:
Candida albicans = test: Inhibition of Candida growth, CLSI M27-A2 broth microdilution (absorbance, MIC); assay type: cell-based; conditions: for MIC: Candida, Table 2; for absorbance of the Candida strain: 37° C., 24 hours, replicate wells
Experimental: An inhibitory effect on Candida growth was evaluated using the CLSI M27 method, which is known as a standard method for antifungal susceptibility testing. The evaluation was performed using the broth microdilution method according to the guidelines of CLSI M27-A2. As medium, 10.4 g of RPMI-MOPS, which is RPMI-1640 medium (Gibco, Gaithersburg, MD, USA) supplemented with L-glutamine, was dissolved in 900 mL of distilled water, and then 34.53 g of 0.165 M 3-N-morpholinopropanesulfonic acid MOPS) buffer was dissolved therein to reach a final volume of 1,000 mL, followed by pH adjustment to 7.0. Then, the solution was filtered through a 0.2 μm filter, thus preparing a medium.
The carbazole compound was dissolved in triple distilled water or dimethyl sulfoxide (DMSO) (Sigma) to a concentration of 20 mg/mL.
A Candida strain was incubated in yeast extract peptone dextrose (YPED) for 16 hours at 30° C., and adjusted to 1.0 turbidity (measured by a spectrophotometer at 600 nm) so that the fungal concentration was about 2.0×10^7 CFU/mL. The fungal solution was washed with triple distilled water, and then diluted again with RPMI-MOPS medium, and 100 μL of the fungal solution was dispensed into each of well Nos. 1 to 10 of a 96-well microplate (final cell concentration: 2.0×10^4 CFU/mL). In addition, 100 μL of the fungal solution was dispensed into well No. 11 (a growth control well), and only 100 μL of RPMI-MOPS medium was dispensed into well No. 12 (a medium control well). After completion of fungal inoculation, the microplate was incubated at 37° C. for 24 hours.
For evaluation of the results, data were obtained by measuring the absorbance using a microplate spectrophotometer to prevent errors by the inspector.
In the data, the concentration at which growth was inhibited based on the medium control well was determined as MIC (minimum inhibitory concentration), and the results are shown in Table 2 below and FIG. 1.

A. fumigatus = test: MIC test against A. fumigatus, same manner as Example 1-1; assay type: cell-based
S. cerevisiae = test: MIC test against budding yeast, same manner as Example 1-1; assay type: cell-based
Candida SC5314 [1] = test: Survival of candidiasis mouse models, compounds in drinking water; assay type: in vivo; conditions: Balb/C mice infected by tail vein; drinking water with molecule B 16 μg/ml or molecule C 32 μg/ml daily; monitored 2 weeks; control 0% within 9 days
Description: (§1) For Candida infection, SC5314, a wild-type strain, was used, and 6-week-old Balb/C female mice were used. The mice were divided into two groups, each consisting of 5 mice, and the survival rate thereof was monitored.
The control group of the experiment using drinking water was provided with normal drinking water daily after Candida infection performed by tail vein injection as described in Example 3-1, and the experimental groups were provided daily with drinking water treated with molecule B at a concentration of 16 μg/ml or with drinking water treated with molecule C at a concentration of 32 μg/ml. The survival rates of the mice were monitored daily for 2 weeks.

HeLa cells = conditions: 16 hours treatment, MTS, tested 1 to 64 μg/ml
Experimental: The cytotoxicity of the carbazole compound to mammalian cells was evaluated using the human cervical cancer cell line HeLa.
Cells were seeded into a 96-well microplate at a density of 1.0×10^4 cells per well, and cultured in 10% FBS-containing DMEM for 24 hours at 37° C. Then, the medium was removed, each well was washed once with PBS and then treated with the synthesized compound diluted in DMEM serially from a concentration of 64 μg/ml to a concentration of 1 μg/ml. 16 hours after treatment with the compound, cytotoxicity was measured using MTS.

Candida SC5314 [2] = test: Extent of kidney infection in Candida-infected mice; assay type: in vivo; conditions: Candida infection by tail vein injection; treated as in Example 3-1
Experimental: as §1
5.0×10^5 Candida cells were diluted in 200 μl of PBS and mice were infected with the dilution by tail vein injection. From day 1 after infection, the control group was inoculated with 200 μl of PBS by tail vein injection, the experimental groups were weighed and treated with molecule B (diluted in 100 μl of PBS) in an amount of 8 mg/kg by tail vein injection or treated with molecule C (diluted in 100 μl of PBS) in an amount of 16 mg/kg by tail vein injection.
After Candida infection performed by tail vein injection as described in Example 3-1, the mice showing the following conditions based on humane euthanasia standards were euthanized using CO2, and the kidneys were collected therefrom and the extents of infection thereof were compared: inability to eat food or drink water; abnormal breathing; dull and stiff hair; reduced movement; or bent posture or body tremor.

[3] = Candida albicans, read-out: MIC

SMILES: Nc1ccc(CCCN2CCN(CCCCn3c4ccccc4c4cc([N+](=O)[O-])ccc43)CC2)cc1 [Molecule G]
- MIC (Candida albicans): 16 µg/mL (≈ 32.9 µM)

SMILES: Nc1ccc(CCCN2CCN(CCCCn3c4ccccc4c4cc(Br)ccc43)CC2)cc1 [Molecule B]
- MIC against Candida (Candida albicans): 8 µg/mL (≈ 15.4 µM)
- absorbance of the Candida strain (Candida albicans; 0.125 μg/ml compound): 0.209 and 0.229 and 0.206
- absorbance of the Candida strain (Candida albicans; 0.25 μg/ml compound): 0.199 and 0.201 and 0.212
- absorbance of the Candida strain (Candida albicans; 0.5 μg/ml compound): 0.198 and 0.199 and 0.218
- absorbance of the Candida strain (Candida albicans; 1 μg/ml compound): 0.224 and 0.228 and 0.208
- absorbance of the Candida strain (Candida albicans; 2 μg/ml compound): 0.143 (2×) and 0.152
- absorbance of the Candida strain (Candida albicans; 4 μg/ml compound): 0.137 and 0.132 and 0.135
- absorbance of the Candida strain (Candida albicans; 8 μg/ml compound): 0.041 (2×) and 0.034
- absorbance of the Candida strain (Candida albicans; 16 μg/ml compound): 0.042 (2×) and 0.036
- absorbance of the Candida strain (Candida albicans; 32 μg/ml compound): 0.047 and 0.045 and 0.04
- absorbance of the Candida strain (Candida albicans; 64 μg/ml compound): 0.043 and 0.044 and 0.036
- MIC (Candida albicans): 8 µg/mL (≈ 15.4 µM)
- MIC against A. fumigatus (A. fumigatus): 64 µg/mL (≈ 123 µM)
- MIC against budding yeast S. cerevisiae (S. cerevisiae): 4 µg/mL (≈ 7.7 µM)
- survival rate (Candida SC5314 [1]): 100%
- concentration up to which no toxicity to mammalian cells was shown (HeLa cells): ≤ 16000 ng/mL
- extent of kidney infection compared to control mice (Candida SC5314 [2]): very low extent of kidney infection

SMILES: CN(C/C=C/c1ccccc1)CCCCn1c2ccccc2c2ccccc21 [Molecule D]
- MIC (Candida albicans; [3]): 16 µg/mL (≈ 43.4 µM)

SMILES: Nc1cccc(CCCN2CCN(CCCCn3c4ccccc4c4ccccc43)CC2)c1 [Molecule E]
- MIC (Candida albicans; [3]): 32 µg/mL (≈ 72.6 µM)

SMILES: Nc1ccc(CCCCN2CCN(CCCCn3c4ccccc4c4ccccc43)CC2)cc1 [Molecule H]
- MIC (Candida albicans; [3]): 32 µg/mL (≈ 70.4 µM)

SMILES: Nc1ccc(CCCN2CCN(CCCCN(c3ccccc3)c3ccccc3)CC2)cc1 [Molecule F]
- MIC (Candida albicans; [3]): 32 µg/mL (≈ 72.3 µM)

SMILES: C(=C\c1ccccc1)/CN1CCN(CCCCCn2c3ccccc3c3ccccc32)CC1 [Molecule A]
- MIC (Candida albicans; [3]): 32 µg/mL (≈ 73.1 µM)

SMILES: Nc1ccc(CCCC2CCN(CCCCn3c4ccccc4c4ccccc43)CC2)cc1 [Molecule I]
- MIC (Candida albicans; [3]): 32 µg/mL (≈ 72.8 µM)

SMILES: Nc1ccc(CCCN2CCN(CCCCn3c4ccccc4c4ccccc43)CC2)cc1 [Molecule C]
- MIC against Candida (Candida albicans): 16 µg/mL (≈ 36.3 µM)
- absorbance of the Candida strain (Candida albicans; 0.125 μg/ml compound): 0.168 and 0.156 and 0.17
- absorbance of the Candida strain (Candida albicans; 0.25 μg/ml compound): 0.189 and 0.193 and 0.162
- absorbance of the Candida strain (Candida albicans; 0.5 μg/ml compound): 0.182 and 0.25 and 0.199
- absorbance of the Candida strain (Candida albicans; 1 μg/ml compound): 0.196 and 0.193 and 0.194
- absorbance of the Candida strain (Candida albicans; 2 μg/ml compound): 0.19 and 0.198 and 0.188
- absorbance of the Candida strain (Candida albicans; 4 μg/ml compound): 0.194 and 0.24 and 0.195
- absorbance of the Candida strain (Candida albicans; 8 μg/ml compound): 0.122 and 0.136 and 0.124
- absorbance of the Candida strain (Candida albicans; 16 μg/ml compound): 0.044 and 0.04 and 0.038
- absorbance of the Candida strain (Candida albicans; 32 μg/ml compound): 0.043 and 0.039 (2×)
- absorbance of the Candida strain (Candida albicans; 64 μg/ml compound): 0.044 and 0.04 and 0.039
- MIC (Candida albicans): 16 µg/mL (≈ 36.3 µM)
- MIC against A. fumigatus (A. fumigatus): 64 µg/mL (≈ 145 µM)
- MIC against budding yeast S. cerevisiae (S. cerevisiae): 4 µg/mL (≈ 9.08 µM)
- survival rate (Candida SC5314 [1]): 80%
- concentration up to which no toxicity to mammalian cells was shown (HeLa cells): ≤ 32000 ng/mL
- extent of kidney infection compared to control mice (Candida SC5314 [2]): very low extent of kidney infection

SMILES: Nc1ccc(CCCN2CCN(CCCCn3c4ccccc4c4cccc(Br)c43)CC2)cc1 [Molecule J]
- MIC (Candida albicans): 32 µg/mL (≈ 61.6 µM)
